From ChEMBL document CHEMBL3232826
Structures can show the parent of a compound that is named as a salt.

What was measured:
in vitro = conditions: dog, MDCK cells
Description: Selectivity index, ratio of CTD50 for MDCK cells to ED50 for Influenza A virus (A/California/07/09(H1N1)) pdm09

[1] = Cytotoxicity against MDCK cells assessed as cell viability after 48 hrs by MTT assay; format: cell-based, Canis lupus familiaris; conditions: dog, read-out: CTD50

Row | SMILES | selectivity ratio (in vitro) | CC50 at 48 h [1] [µM]
1 | CC1(C)[C@@H]2CC[C@@]1(C)/C(=N/CCC/N=C1\C[C@H]3CC[C@]1(C)C3(C)C)C2 | 30 | 284
2 | CC1(C)[C@@H]2CC[C@@]1(C)/C(=N/CCCCCC/N=C1\C[C@H]3CC[C@]1(C)C3(C)C)C2 | 89 | 1350
3 | CC1(C)[C@@H]2CC[C@@]1(C)/C(=N/CCCCCCC/N=C1\C[C@H]3CC[C@]1(C)C3(C)C)C2 | 55 | 1260
4 | CC1(C)[C@@H]2CC[C@@]1(C)/C(=N/CCCCCCCC/N=C1\C[C@H]3CC[C@]1(C)C3(C)C)C2 | 16 | 390
5 | CC1(C)[C@@H]2CC[C@@]1(C)/C(=N/CCCCCCCCCCCC/N=C1\C[C@H]3CC[C@]1(C)C3(C)C)C2 | 49 | 2220
6 | CC1(C)[C@@H]2CC[C@@]1(C)/C(=N/c1ccc(Cc3ccc(/N=C4\C[C@H]5CC[C@]4(C)C5(C)C)cc3)cc1)C2 | 3 | > 1070
7 | CC1(C)[C@@H]2CC[C@@]1(C)/C(=N/c1ccc(Oc3ccc(/N=C4\C[C@H]5CC[C@]4(C)C5(C)C)cc3)cc1)C2 | 3 | > 1070
8 | CC1(C)[C@@H]2CC[C@@]1(C)[C@H](NCCCCCCN[C@@H]1C[C@H]3CC[C@]1(C)C3(C)C)C2 | 7 | 5.4
9 | CC1(C)[C@@H]2CC[C@@]1(C)[C@H](NCCCCCCCN[C@@H]1C[C@H]3CC[C@]1(C)C3(C)C)C2 | 3 | 10.4
10 | CC1(C)[C@@H]2CC[C@@]1(C)[C@H](NCCCCCCCCCCCCN[C@@H]1C[C@H]3CC[C@]1(C)C3(C)C)C2 | 3 | 14.4
11 | CC1(C)[C@@H]2CC[C@@]1(C)[C@H](Nc1ccc(Cc3ccc(N[C@@H]4C[C@H]5CC[C@]4(C)C5(C)C)cc3)cc1)C2 | 4 | > 638
12 | CC1(C)[C@@H]2CC[C@@]1(C)[C@H](Nc1ccc(Oc3ccc(N[C@@H]4C[C@H]5CC[C@]4(C)C5(C)C)cc3)cc1)C2 | 3 | > 636
13 | CN(CCCCCCN(C)[C@@H]1C[C@H]2CC[C@]1(C)C2(C)C)[C@@H]1C[C@H]2CC[C@]1(C)C2(C)C | 1 | 110
14 | CN(CCCCCCCN(C)[C@@H]1C[C@H]2CC[C@]1(C)C2(C)C)[C@@H]1C[C@H]2CC[C@]1(C)C2(C)C | 17 | 698
15 | CC1(C)[C@@H]2CC[C@@]1(C)/C(=N/c1ccc(Cc3ccc(N)cc3)cc1)C2 | 2 | 30.1
16 | CC1(C)[C@@H]2CC[C@@]1(C)/C(=N/c1ccc(Oc3ccc(N)cc3)cc1)C2 | 8 | 32.9
17 | CC(N)C1CC2CCC1C2 (stereo unspecified) |  | 1270
18 | NC12CC3CC(CC(C3)C1)C2 [AMANTADINE] | 4 | 
19 | CC1(C)C2CC[C@@]1(C)C(=O)C2 [CAMPHOR] | 2 | 
20 | CC(N)C12CC3CC(CC(C3)C1)C2 (stereo unspecified) [RIMANTADINE HYDROCHLORIDE] | 5 | 
